Reference: US20150148311A1, “NON-SYSTEMIC TGR5 AGONISTS” (Ardelyx, Inc., priority 2011, published 2015)

How the values were obtained:
CD-1 female mice = assay: In vivo measurement of CCK-mediated gallbladder emptying (egg yolk); settings: fasted ~16 h, oral 30 mg/kg (devazepide 1 mg/kg) 1 h before egg yolk, gallbladder weighed 15 min later (FIG. 1)
Procedure: CD-1 female mice on regular chow had food removed (to prevent gallbladder emptying) in the late evening. The next morning (˜16 h later), groups of mice were dosed orally with vehicle (10% hydroxypropyl-β-cyclodextrin; 2 groups), devazepide in water (1 mg/kg; […]. One hour later, 1 group of vehicle-treated mice was dosed orally with saline, and all other groups were dosed orally with lyophilized egg yolk [0.75 mL; 30% (wt/vol) reconstituted in saline for induction of CCK-mediated gallbladder emptying]. Fifteen minutes later, mice were heavily anesthetized with isoflurane, the peritoneal cavity was opened and gallbladders (with contents) were carefully excised and weighed.

total (t)PYY = assay: Time course of in vivo induction of total PYY; settings: C57BL/6 male mice; for induction of tPYY levels following a single oral dose: 30 mg/kg oral, 4, 8, 12 and 16 h
Procedure: (§1) C57BL/6 male mice on regular chow received an oral dose of vehicle (2% DMSO in 0.4% hydroxypropyl methylcellulose) or examples 176 or 178 (at 30 mg/kg). Food was removed prior to/or at the time of dosing: 4, 8, 12, and 16 h groups fasted for 7, 8, 12 and 16 h, respectively. At the appropriate time after dosing, mice were heavily anesthetized with isoflurane, and blood was collected from the left ventricle of the heart and processed to plasma as described in Example 293 for measurement of total (t) GLP-1 and, additionally, total (t)PYY (N45ZA-1; Meso Scales Discovery, Gaithersburg Md.).

[1] = Compound plasma concentration, LC-MS/MS, 8 h post dose; assay type: in vivo; settings: 30 mg/kg; for Number of Mice with Plasma Concentration < LLOQ: mice below LLOQ / mice in group; for concentration at 8 h: male, C57BL/6, mouse, mice, plasma, read-out: Mean Example Plasma Concentration
Summary of the method: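 Blood was taken from the left ventricle 8 h after dosing, under isoflurane anesthesia, into EDTA tubes containing aprotinin and DPPIV inhibitor. Plasma was protein-precipitated with acetonitrile containing an internal standard, and supernatants were analyzed by LC-MS/MS against a plasma standard curve.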

total (t) GLP-1 = assay: Time course of in vivo induction of total GLP-1; settings: C57BL/6 male mice, 30 mg/kg oral, 4, 8, 12 and 16 h
Procedure: as §1

[2] = Compound concentration in gall bladder, LC-MS/MS, 8 h post dose; assay type: in vivo; settings: 30 mg/kg; for Number of Mice with Gallbladder Concentration < LLOQ: mice below LLOQ / mice in group
Summary of the method: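 Gallbladder with its contents excised from isoflurane-anesthetized mice 8 h after dosing and homogenized in water. Homogenate diluted 1:5, precipitated with acetonitrile and measured by LC-MS/MS. Levels interpolated from per-compound standard curves in vehicle-treated gallbladder homogenate.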

C57BL/6 male mice = assay: In vivo gallbladder measurement (weight) 16 hours post-dose; settings: 30 mg/kg
[3] = biological target: T1, endogenously expressed TGR5 in NCI H716 (Homo sapiens, UniProt Q8TDU6); assay: Cell-based TGR5 assay, NCI-H716 cells endogenously expressing human TGR5, cAMP by HTRF; settings: 30 min at 37 C, 22 nM to 50 μM, read-out: pEC50 endogenously expressed TGR5 in NCI H716 (converted)
T1 construct: human caecum carcinoma cell line NCI-H716 which endogenously expresses human TGR5; endogenous in cells; host or cells: NCI-H716
T1 sequence (Q8TDU6 1-330): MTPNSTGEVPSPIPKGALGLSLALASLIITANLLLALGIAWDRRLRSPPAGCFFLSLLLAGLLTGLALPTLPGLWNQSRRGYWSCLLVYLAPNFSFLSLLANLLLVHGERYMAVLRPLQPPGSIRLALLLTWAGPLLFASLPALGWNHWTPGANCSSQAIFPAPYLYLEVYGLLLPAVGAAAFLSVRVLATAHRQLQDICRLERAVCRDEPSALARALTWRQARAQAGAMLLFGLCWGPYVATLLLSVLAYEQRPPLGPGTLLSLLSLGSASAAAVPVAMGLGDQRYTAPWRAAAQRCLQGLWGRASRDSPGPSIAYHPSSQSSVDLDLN
Summary of the method: (§2)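 cAMP HTRF read-out, converted to concentration via standard curve, after a 30 min, 37 °C compound exposure in HBSS with 10 mM HEPES pH 7.4 and 0.5 mM IBMX, compounds serially diluted 3-fold from 10 mM DMSO stock then 100-fold. Cells: stable human TGR5 HEK293, or NCI-H716 expressing TGR5 endogenously.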

[4] = Compound concentration in gallbladder 16 hours post dose; assay type: in vivo; settings: 30 mg/kg; for Number of Mice with Gallbladder Concentration < LLOQ: mice below LLOQ / mice in group; for concentration at 16 h: male, C57BL/6, mouse, gallbladder (homogenate, with contents), mice, gallbladder, read-out: Mean Example Gallbladder Concentration
Procedure: Compound concentrations in the gall bladder were determined as follows: each mouse was heavily anesthetized with isoflurane, the peritoneal cavity was opened and the gallbladder, with its entire contents, was carefully excised. After harvest, gall bladders were homogenized in 100 μL water using a micro-homogenizer. Samples of homogenate were diluted 1:5 in water and precipitated with three volumes of neat acetonitrile. After centrifugation, supernatants were analyzed by LC-MS/MS. The level of test compound present in gall bladder samples was interpolated from a standard curve for each individual compound prepared in a matrix of gallbladder homogenate from vehicle treated animals.
C57BL/6 male mice on regular chow had food removed (to prevent gallbladder emptying) and were dosed in the early evening with vehicle (2% DMSO in 0.4% hydroxypropyl methylcellulose) or 30 mg/kg of examples 176, 177, or 178 formulated in vehicle. The next morning (˜16 h post-dose), mice were heavily anesthetized with isoflurane, the peritoneal cavity was opened and gallbladders (with contents) were carefully excised and weighed. Compound levels in gallbladder were analyzed as described in Example 293.

human TGR5 = biological target: T2, human TGR5 (Homo sapiens, UniProt Q8TDU6); assay: Cell-based TGR5 assay, HEK293 cells stably expressing human TGR5, cAMP by HTRF; settings: HEK293 cells stably expressing human TGR5, 30 min at 37 C, 0.05 nM to 10 μM, read-out: pEC50 Human TGR5 (converted)
T2 construct: expressed in transfected cells
T2 sequence (Q8TDU6 1-330): T1 sequence (Q8TDU6 1-330)
Summary of the method: as §2

human IBAT = biological target: T3, human IBAT (Homo sapiens, UniProt Q12908); assay: IBAT counter screen, [3H]taurocholic acid uptake in IBAT-transfected HEK293 cells; assay type: cell-based; settings: read-out: pEC50 human IBAT (converted)
T3 construct: expressed in transfected cells; host or cells: HEK293
T3 sequence (Q12908 1-348): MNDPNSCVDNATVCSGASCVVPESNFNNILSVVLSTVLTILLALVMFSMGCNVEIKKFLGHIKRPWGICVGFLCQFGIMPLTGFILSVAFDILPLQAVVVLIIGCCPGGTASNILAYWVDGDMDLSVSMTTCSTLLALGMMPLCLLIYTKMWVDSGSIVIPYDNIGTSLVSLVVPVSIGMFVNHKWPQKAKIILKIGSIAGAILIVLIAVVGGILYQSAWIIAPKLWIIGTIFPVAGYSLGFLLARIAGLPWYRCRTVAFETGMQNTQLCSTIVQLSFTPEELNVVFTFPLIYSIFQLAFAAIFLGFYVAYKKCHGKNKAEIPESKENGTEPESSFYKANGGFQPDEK
Procedure: Following a 40-min incubation, the solution was removed, and the cells were washed twice with uptake buffer. Cells were lysed by addition of 20 μL 0.1% Tween 80 followed by 100 μL scintillation fluid and counted using a TopCount (Perkin Elmer).

human FXR = biological target: T4, human FXR (Homo sapiens, UniProt Q96RI1); assay: FXR counter screen, cell-based luciferase reporter assay; settings: cells expressing human FXR and FXR-responsive luciferase reporter, 0.4 to 50 μM test compound; read-out: pEC50 human FXR (converted)
T4 construct: purchased Indigo Biosciences (State College, Pa.)
T4 sequence (Q96RI1 1-486): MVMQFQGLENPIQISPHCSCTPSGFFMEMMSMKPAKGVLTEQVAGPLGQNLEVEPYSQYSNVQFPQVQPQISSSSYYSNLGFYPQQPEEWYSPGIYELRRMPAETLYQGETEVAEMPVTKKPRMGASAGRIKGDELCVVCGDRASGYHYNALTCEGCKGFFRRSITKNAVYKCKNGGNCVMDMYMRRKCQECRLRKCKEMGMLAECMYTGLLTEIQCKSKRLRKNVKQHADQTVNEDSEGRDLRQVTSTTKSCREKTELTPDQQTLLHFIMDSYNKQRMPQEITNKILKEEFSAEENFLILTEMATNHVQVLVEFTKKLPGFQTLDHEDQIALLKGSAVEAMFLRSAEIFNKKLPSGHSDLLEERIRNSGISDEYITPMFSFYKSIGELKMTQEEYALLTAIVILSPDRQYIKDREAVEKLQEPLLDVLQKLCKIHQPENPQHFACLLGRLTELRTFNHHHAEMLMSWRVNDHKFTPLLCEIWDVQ
Procedure: FXR: The ability of test compounds to activate FXR (NR1H4) was measured using a cell-based assay kit obtained from Indigo Biosciences (State College, Pa.).

mice = settings: i.p. injection, in 30 minutes, literature (Li et al. 2011); cited from earlier work

SMILES | inhibition of CCK-mediated gallbladder emptying (CD-1 female mice) | Number of Mice with Plasma Concentration < LLOQ [1] | concentration at 8 h [1] | Number of Mice with Gallbladder Concentration < LLOQ [2] | EC50 [3] | Number of Mice with Gallbladder Concentration < LLOQ [4] | concentration at 16 h [4] | EC50 (human TGR5) | induction of tPYY levels following a single oral dose (total (t)PYY) | induction of tGLP-1 levels following a single oral dose (total (t) GLP-1) | effect on gallbladder weight/body weight (C57BL/6 male mice) | other results
CN1C(=O)[C@@H](NC(=O)c2cc3ccccc3[nH]2)N=C(c2ccccc2)c2ccccc21 [devazepide, reference compound] | did |  |  |  |  |  |  |  |  |  |  | 
O=C(N1CCCc2cccnc21)C1(OCc2cc(Cl)ccc2Cl)CC1 [Example 85, 1-([1-[(2,5-dichlorophenyl)methoxy]cyclopropyl]carbonyl)-1,2,3,4-tetrahydro-1,8-naphthyridine] |  |  |  |  | 1.26 to 50.1 µM | 0/6 | 0.2 µM | 0.126 to 1 µM |  |  |  | 
CC[C@H]1[C@@H](O)[C@@H]2[C@H](C[C@H](O)[C@]3(C)[C@@H]([C@H](C)C[C@H](C)C(=O)O)CC[C@@H]23)[C@@]2(C)CC[C@@H](O)C[C@@H]12 [INT-777] |  |  |  |  |  |  |  |  |  |  |  | increase of gallbladder volume (mice): approximately two-fold

Further lines, with some results ahead:

inhibition of CCK-mediated gallbladder emptying (CD-1 female mice) | Number of Mice with Plasma Concentration < LLOQ [1] | concentration at 8 h [1] | Number of Mice with Gallbladder Concentration < LLOQ [2] | EC50 [3] | Number of Mice with Gallbladder Concentration < LLOQ [4] | concentration at 16 h [4] | EC50 (human TGR5) | SMILES | induction of tPYY levels following a single oral dose (total (t)PYY) | induction of tGLP-1 levels following a single oral dose (total (t) GLP-1) | effect on gallbladder weight/body weight (C57BL/6 male mice) | other results
did not inhibit | 8/8 | < 2 ng/mL | 0/8 |  |  |  |  | O=C(NC[C@H](O)[C@@H](O)[C@H](O)[C@H](O)CO)c1ccc(COc2cc(Cl)c(CN3CSC[C@H]3C(=O)N3CCN(C4CC4)c4ccccc43)cc2Cl)cc1 [Example 176, 4-(2,5-dichloro-4-{[(4R)-4-[(4-cyclopropyl-1,2,3,4-tetrahydroquinoxalin-1-yl)carbonyl]-1,3-thiazolidin-3-yl]methyl}phenoxymethyl)-N-[(2S,3R,4R,5R)-2,3,4,5,6-pentahydroxyhexyl]benzamide] | sustained induction | sustained induction | no significant effect | concentration at 8 h ([2]; male, C57BL/6, mouse, with contents, mice, gallbladder homogenate, read-out: Mean Example Gallbladder Concentration): 0.1 µM
did not inhibit | 8/8 | < 1 ng/mL | 0/8 |  |  |  |  | O=C(CCCCc1cc(Cl)c(CN2CSC[C@H]2C(=O)N2CCN(C3CC3)c3ccccc32)cc1Cl)NC[C@H](O)[C@@H](O)[C@H](O)[C@H](O)CO [Example 178, 5-(2,5-dichloro-4-(((R)-4-(4-cyclopropyl-1,2,3,4-tetrahydroquinoxaline-1-carbonyl)thiazolidin-3-yl)methyl)phenyl)-N-((2S,3R,4R,5R)-2,3,4,5,6-pentahydroxyhexyl)pentanamide] | sustained induction | sustained induction | no significant effect | times after dosing at which tPYY levels were significantly elevated (total (t)PYY; 30 mg/kg oral, tested 4, 8, 12 and 16 h (FIG. 2, panel B)): 8 h; EC50 (human IBAT): > 25.1 µM; EC50 (human FXR): > 50.1 µM
 |  |  |  | 1.26 to 50.1 µM | 0/6 | 0.03 µM | 0.126 to 1 µM | O=C(O)CCc1cc(Cl)c(CNC2(C(=O)N3CCN(C4CC4)c4ccccc43)CC2)cc1Cl [Example 83, 3-(2,5-dichloro-4-(((1-(4-cyclopropyl-1,2,3,4-tetrahydroquinoxaline-1-carbonyl)cyclopropyl)amino)methyl)phenyl)propanoic acid] |  |  |  | 
